Source: patent US12558329B2 (New York University, priority 2021, dated 2026)
“Also recorded” adds a separate entry of the source.

What was measured:
[1] = tested on: MIAPACA2 cells; assay: 13C9-Tyr tracing in MIAPACA2 cells with the indicated reagents; format: cell-based, human
Text: 4-HMA biosynthesis has only been described in some bacteria and in rabbits. […] The production of 4-HPPA occurs in the first step of tyrosine (Tyr) catabolism via tyrosine transaminase (TAT). In rabbits, 4-HMA was proposed to be synthesized from the degradation of tyramine and octopamine by dopamine β-hydroxylase (Dbh) and monoamine oxidase (Mao) (FIG. 9A)^13. Tyramine is also a Tyr-derived metabolite. Therefore, all known substrates required to generate 4-HMA are derived from Tyr. In addition, Tyr can also be made from phenylalanine (Phe) by Phe hydroxylase (PAH) in mammalian liver cells^14. To elucidate the human 4-HMA biosynthetic pathway, the fates of ^13C9-Tyr and ^13C6-Phe were traced in human cells. […] Additionally, the generation of 4-HMA by […] would result in the incorporation of a single ^18O at the Ca position of the carboxylic acid of 4-HMA (FIG. 9A). However, this was not observed by ^18O labelling (FIG. 8B). Therefore, it was unlikely that 4-HMA biosynthesis from octopamine and tyramine catabolism occurred in the present system.
Unexpectedly, 4-HMA levels also were lower in hyperoxic (21%) conditions compared to 3% O2, reflecting either decreased production or increased consumption of this metabolite at 21% O2.
Therefore, CoQ10 was used as an indirect readout of 4-HB production. To assess the ability of human cells to biosynthesize CoQ10, cells were labelled with ^13C6-Phe or ^13C9-Tyr. CoQ10 was completely biosynthesized from Tyr, but not Phe, in human cells (FIG. 11B).
For metabolomics, briefly, cells were washed in 4° C. 0.9% saline and metabolites were extracted with 46% methanol:23% H2O:[…] chloroform that contained a labelled amino acid standard mix (MSK-A2-1.2, Cambridge Isotope Laboratories, Inc.). Enzymatic assay samples were extracted using 80% methanol: 20% H2O that contained labelled amino acid standards. Extracts were placed into 1.5 mL Eppendorf tubes, vortexed at 4° C. for 10 min and centrifuged at 4° C. for 10 min at 17,200×g in a microcentrifuge. The aqueous phase was transferred to vials for GC-MS or Eppendorf tubes for LC-MS. Polar samples were evaporated in a SpeedVac and samples were resolved by GC-MS or LC-MS. Lipid samples were dried using a stream of N2 (for ^18O labelling studies) or air. Metabolite and lipid extracts were submitted to the NYULMC Metabolomics Core Resource Laboratory.
For polar metabolomics, the LC column was a Millipore ZIC-pHILIC (2.1×150 […], 5 μm bead size) coupled to a Dionex UltiMate 3000 system. The column oven temperature was held at 25° C. The flow rate was 100 μL/min, and the injection volume was 1 μL. Buffer A was 10 mM ammonium carbonate in water, pH 9, and Buffer B was neat acetonitrile. The gradient profile was 80-20% B (0-30 min), 20-80% B (30-31 min), and 80-80% B (31-42 min). MS Analyses were carried out on a Thermo Q Exactive HF mass spectrometer using a heated electrospray ionization (HESI) source. The method duration was 30 min using a polarity-switching, top 5 method. The spray voltage for both positive and negative ion modes was 3.5 kV. The capillary temperature was 320° C. with a maximum spray current of 100 ρA. The full MS scan was carried out at 120,000 resolution with a scan range of 67-1000 m/z. For ^18O2 labelling experiments, full MS scans were carried out at 240,000 resolution at the same scan range. Tandem MS spectra were obtained at 15,000 resolution. All data were acquired in profile mode. Peak heights were analyzed using Xcalibur (ThermoFisher Scientific).
Lipid metabolomics were acquired using a Waters CSH-C18 (2.1×100 mm, 1.7 μm) column coupled to a Dionex UltiMate 3000 system. The column oven temperature was held at 55° C. The flow rate was 300 μL/min and the injection volume was 1 μL. Buffer A was 60:40 acetonitrile:water, 0.1% formic acid and Buffer B was 90:10 isopropanol:acetonitrile, 10 mM ammonium formate. […]

[2] = tested on: human cells; assay: 18O2-GASSP labelling of human cells, untargeted polar metabolomics, with or without IOX1; format: cell-based; details: A498 and SKNDZ cells, 3%, 1%, 0.2% 18O2, IOX1 24 hours
Method: To map the molecular fate of O2 in metabolic pathways in living cells, GASSP was used to carry out ^18O2 labelling in cell lines of different tissue origins at ^18O2 concentrations that represented physiological (3%), hypoxic (1%), and severely hypoxic (0.2%) oxygen tensions found in tissues and tumours^7. At the end of each run, polar metabolites were extracted and untargeted polar metabolomics using liquid chromatography-high resolution mass spectrometry (LC-MS) were carried out to identify metabolites labeled with ^18O.
A list of unique features identified by untargeted metabolomics that were >0.25% (natural abundance of ^18O is 0.2%) labelled by ^18O atoms in each cell line at each oxygen tension was generated. In addition, background signal was controlled by requiring that ^18O labeled peaks had to have a signal that was two-fold greater than naturally occurring isotopes found in non-labelled (^16O) metabolite cell extracts. To determine the proportion of unique ^18O labelled features that were due to dioxygenase activity, cells were treated with a pan-dioxygenase inhibitor (IOX1) at concentrations that inhibit iron-dependent dioxygenases, such as the HIF1α prolyl hydroxylases (FIGS. 5E-5F) and identified ^18O labelled polar metabolites. This list of ^18O metabolites was generated by identifying all features in the unlabelled samples, filtering these features against blank samples to remove background peaks, and calculating the fractional ^18O labelling with the assumption that a metabolite would have no more than three oxygen atoms labelled, followed by manual curation of labelled features (FIG. 1B and FIG. 5G). […] These ^18O-labelled features were termed the oxy-metabolome.
To determine the identities of the labeled metabolites, the list of ^18O labelled features was annotated to their corresponding unlabelled metabolites using retention time matching, tandem mass spectrometry (MS2) fragmentation patterns, and database searching.
All steps involved in setting up labelling with ^18O2 were performed at room temperature and inside a chemical fume hood. The procedure may vary depending on the type and number of tissue culture plates in the chamber and the amount of media in the plates. Users must test the system by using ^16O2:CO2:N2 or other unlabelled gases to optimize conditions for their needs and avoid consumption of costly labelled gases. Cells were treated with or without 5 μM MG132, 500 μM IOX1, 250 μM DFO, or 70 μM ascorbate, before placing tissue culture plates into the modular incubator chamber (MIC) containing a wireless oxygen sensor and a 15 cm dish of water to maintain humidity. Next, the clamps were closed to form an air-tight seal between the lid and platform of the MIC. […] N2 flushing was repeated for a total of three times, or until the sensor in the chamber stabilized at 0% O2 for 10 minutes.

## O=C(O)c1ccc(O)c2ncccc12 [IOX1]
[1]; 3% 16O2, 24 hours
  13C9-Tyr-derived 4-HMA: attenuated or ablated; also recorded: severely inhibited
  CoQ10 labelling from 13C9-Tyr (incorporation of tyrosine into CoQ10): eliminated; also recorded: completely blocked
[1]; 13C-Tyr, 3% O2, 24 hours
  4-HPLA pools: increased
[2]
  4-HMA 18O labeling: decreased
